Among the data in patent US7947706B2, “Substituted pyrrolopyridines, compositions containing them, manufacturing process therefor and use thereof” (Sanofi-Aventis Deutschland GmbH, priority 2005, dated 2011) are melting point values, retold here.

The structures appear in SMILES notation.

`Cc1ccc(C)c(NC(=O)Nc2ccc(-c3c(C(N)=O)[nH]c4cnccc34)cc2)c1` [Example 46, 3-{4-[3-(2,5-Dimethylphenyl)ureido]phenyl}-1H-pyrrolo[2,3-c]pyridine-2-carboxamide] had a melting point of 261 °C. With `NC(=O)c1[nH]c2cnccc2c1-c1ccc(NC(=O)Nc2ccccc2F)cc1` [Example 47, 3-{4-[3-(2-Fluorophenyl)ureido]phenyl}-1H-pyrrolo[2,3-c]-pyridine-2-carboxamide] the figure was 242 °C; with `NC(=O)c1[nH]c2cnccc2c1-c1ccc(NC(=O)Nc2cccc(F)c2)cc1` [Example 48, 3-{4-[3-(3-Fluorophenyl)ureido]phenyl}-1H-pyrrolo[2,3-c]-pyridine-2-carboxamide], 252 °C; with `NC(=O)c1[nH]c2cnccc2c1-c1ccc(NC(=O)Nc2cccc(C(F)(F)F)c2F)cc1` [Example 49, 3-{4-[3-(2-Fluoro-3-trifluoromethylphenyl)ureido]phenyl}-1H-pyrrolo[2,3-c]pyridine-2-carboxamide], 240 °C. For `NC(=O)c1[nH]c2cnccc2c1-c1ccc(NC(=O)Nc2cc(F)cc(C(F)(F)F)c2)cc1` [Example 50, 3-{4-[3-(3-Fluoro-5-trifluoromethylphenyl)ureido]phenyl}-1H-pyrrolo[2,3-c]pyridine-2-carboxamide] the value was 261 °C; for `NC(=O)c1[nH]c2cnccc2c1-c1ccc(NC(=O)Nc2ccc(F)c(C(F)(F)F)c2)cc1` [Example 51, 3-{4-[3-(4-Fluoro-3-trifluoromethylphenyl)ureido]phenyl}-1H-pyrrolo[2,3-c]pyridine-2-carboxamide], 201 °C; for `Cc1ccc(NC(=O)Nc2ccc(-c3c(C(N)=O)[nH]c4cnccc34)cc2)cc1C(F)(F)F` [Example 52, 3-{4-[3-(4-Methyl-3-trifluoromethylphenyl)ureido]phenyl}-1H-pyrrolo[2,3-c]pyridine-2-carboxamide], 199 °C. `Cc1ccccc1NC(=O)Nc1ccc(-c2c(C(N)=O)[nH]c3cnccc23)cc1` [Example 56, 3-[4-(3-o-Tolylureido)phenyl]-1H-pyrrolo[2,3-c]pyridine-2-carboxamide] returned a melting point of 270 °C. For `COc1ccc(NC(=O)Nc2ccc(-c3c(C(N)=O)[nH]c4cnccc34)cc2)cc1` [Example 57, 3-{4-[3-(4-Methoxyphenyl)ureido]phenyl}-1H-pyrrolo[2,3-c]pyridine-2-carboxamide] the value was 275 °C; for `NC(=O)c1[nH]c2cnccc2c1-c1ccc(NC(=O)Nc2ccc(OC(F)F)c(Cl)c2)cc1` [Example 58, 3-{4-[3-(3-Chloro-4-difluoromethoxyphenyl)ureido]phenyl}-1H-pyrrolo[2,3-c]pyridine-2-carboxamide], 267 °C; for `Cc1cc(C)cc(NC(=O)Nc2ccc(-c3c(C(N)=O)[nH]c4cnccc34)cc2)c1` [Example 59, 3-{4-[3-(3,5-Dimethylphenyl)ureido]phenyl}-1H-pyrrolo[2,3-c]pyridine-2-carboxamide], 188 °C. With `CCc1cccc(NC(=O)Nc2ccc(-c3c(C(N)=O)[nH]c4cnccc34)cc2)c1` [Example 60, 3-{4-[3-(3-Ethylphenyl)ureido]phenyl}-1H-pyrrolo[2,3-c]-pyridine-2-carboxamide] the figure was 257 °C; with `CCc1cccc(NC(=O)Nc2ccc(-c3c(C(N)=O)[nH]c4ncccc34)cc2)c1` [Example 61, 3-{4-[3-(3-Ethylphenyl)ureido]phenyl}-1H-pyrrolo[2,3-b]-pyridine-2-carboxamide], 254 °C.
